Laboratory results from ChEMBL document CHEMBL1201862, “PubChem BioAssay data set” (2004).
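All cell lines were grown in 96-well plates and treated with compound for 48 hours. Here, GI50 denotes the concentration required for 50% inhibition of growth.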 Calls of active or inactive are those of the source. Cut-off read from the data, not from the text of the source: active = GI50 up to about 1.1 µM and inactive = higher.

Key:
Assay in all cases: growth of human tumour cells (NCI), 48 h
[1] = tested on: OVCAR-5
[2] = tested on: NCI-H460
[3] = tested on: SK-MEL-28
[4] = tested on: SK-MEL-5
[5] = tested on: HOP-62
[6] = tested on: IGROV-1
[7] = tested on: 786-0
[8] = tested on: SF-539
[9] = tested on: SK-MEL-2
[10] = tested on: A549
[11] = tested on: RXF 393
[12] = tested on: HT-29
[13] = tested on: HCT-116
[14] = tested on: HCC 2998
[15] = tested on: ACHN
[16] = tested on: RPMI-8226
[17] = tested on: HL-60
[18] = tested on: NCI-H522
[19] = tested on: SR

| Structure (SMILES) | GI50 [1] | GI50 [2] | GI50 [3] | GI50 [4] | GI50 [5] | GI50 [6] | GI50 [7] | GI50 [8] | GI50 [9] | GI50 [10] | GI50 [11] | GI50 [12] | GI50 [13] | GI50 [14] | GI50 [15] | GI50 [16] | GI50 [17] | GI50 [18] | GI50 [19] |
| --- | --- | --- | --- | --- | --- | --- | --- | --- | --- | --- | --- | --- | --- | --- | --- | --- | --- | --- | --- |
| Cc1ccc(S(=O)(=O)N2CCCSCCSCCCN(S(=O)(=O)c3ccc(C)cc3)CC2)cc1 | > 100 µM (inactive) | > 100 µM (inactive) | > 100 µM (inactive) | > 100 µM (inactive) | > 100 µM (inactive) | > 100 µM (inactive) | > 100 µM (inactive) | > 100 µM (inactive) | > 100 µM (inactive) | > 100 µM (inactive) | > 100 µM (inactive) | > 100 µM (inactive) | > 100 µM (inactive) | > 100 µM (inactive) | > 100 µM (inactive) | > 100 µM (inactive) |  |  |  |
| CN(C)c1cc[n+](-c2nc([N-]C(=O)C(F)(F)F)nc3c2ncn3C2CC(O)C(CO)O2)cc1 (stereo unspecified) | > 100 µM (inactive) | > 100 µM (inactive) | > 100 µM (inactive) | > 100 µM (inactive) | > 100 µM (inactive) | > 100 µM (inactive) | > 100 µM (inactive) | > 100 µM (inactive) | > 100 µM (inactive) | > 100 µM (inactive) | > 100 µM (inactive) | > 100 µM (inactive) | > 100 µM (inactive) | > 100 µM (inactive) | > 100 µM (inactive) | > 100 µM (inactive) | > 100 µM (inactive) | > 100 µM (inactive) |  |
| O=C(O)CN1CCN2CCCCCCCCN(CC1)CCN(CC(=O)O)CC2 | > 100 µM (inactive) | > 100 µM (inactive) | > 100 µM (inactive) | > 100 µM (inactive) | > 100 µM (inactive) | > 100 µM (inactive) | > 100 µM (inactive) | > 100 µM (inactive) | > 100 µM (inactive) | > 100 µM (inactive) |  | 43.5 µM (inactive) | > 100 µM (inactive) |  | > 100 µM (inactive) | > 100 µM (inactive) | 5.08 µM (inactive) | 64.6 µM (inactive) |  |
| O=C1CCC2SC1CCC2=O | > 100 µM (inactive) | > 100 µM (inactive) | > 100 µM (inactive) | > 100 µM (inactive) | > 100 µM (inactive) | > 100 µM (inactive) | > 100 µM (inactive) | > 100 µM (inactive) | > 100 µM (inactive) | > 100 µM (inactive) | > 100 µM (inactive) | > 100 µM (inactive) | > 100 µM (inactive) | > 100 µM (inactive) | > 100 µM (inactive) |  | > 100 µM (inactive) | > 100 µM (inactive) |  |
| Cn1nc(S(N)(=O)=O)s/c1=N/S(=O)(=O)c1ccc(N)cc1 | > 100 µM (inactive) | > 100 µM (inactive) | > 100 µM (inactive) |  | > 100 µM (inactive) |  | > 100 µM (inactive) | > 100 µM (inactive) | > 100 µM (inactive) | > 100 µM (inactive) | > 100 µM (inactive) | > 100 µM (inactive) |  | > 100 µM (inactive) | > 100 µM (inactive) | > 100 µM (inactive) |  |  |  |
| C/C(=N\c1c2ccccc2nc2ccccc12)N(C)C | 20.5 µM (inactive) |  | 18.4 µM (inactive) | 14.6 µM (inactive) | 16.5 µM (inactive) | 23.9 µM (inactive) | 24.2 µM (inactive) |  | 20 µM (inactive) | 28.2 µM (inactive) | 23.8 µM (inactive) | 9.48 µM (inactive) | 10.4 µM (inactive) |  | 19.8 µM (inactive) | 13.6 µM (inactive) | 3.28 µM (inactive) | 10.7 µM (inactive) | 3.47 µM (inactive) |
| N#Cc1cc(-c2nc3ccc(F)cc3s2)ccc1N | > 100 µM (inactive) | > 100 µM (inactive) |  | > 100 µM (inactive) | 72.1 µM (inactive) | 3.27 µM (inactive) | > 100 µM (inactive) | 51.1 µM (inactive) |  | > 100 µM (inactive) | > 100 µM (inactive) | > 100 µM (inactive) | 33.5 µM (inactive) |  | > 100 µM (inactive) | > 100 µM (inactive) | > 100 µM (inactive) | > 100 µM (inactive) |  |
| COCO[C@@H]1C[C@H]2C(=O)Nc3ccccc3C(=O)N2C1 | 61.5 µM (inactive) |  | > 100 µM (inactive) | 24.1 µM (inactive) | 39.8 µM (inactive) | 33 µM (inactive) | > 100 µM (inactive) | 38.7 µM (inactive) | 46.6 µM (inactive) | > 100 µM (inactive) | 20.6 µM (inactive) | 85.3 µM (inactive) | 85.3 µM (inactive) |  | 50.6 µM (inactive) |  |  | 16.2 µM (inactive) |  |
| CC(=O)N/N=C1\NC(=O)C[C@H]2[C@@H]3CC=C4C[C@@H](OC(C)=O)CC[C@]4(C)[C@H]3CC[C@]12C | > 100 µM (inactive) |  | 13.4 µM (inactive) | 50.8 µM (inactive) | 13.6 µM (inactive) | 31 µM (inactive) | 16 µM (inactive) | 7.33 µM (inactive) | 47.5 µM (inactive) | 34.2 µM (inactive) |  | 31.4 µM (inactive) | 67 µM (inactive) |  | 21.5 µM (inactive) | 24.3 µM (inactive) | > 100 µM (inactive) | 32.1 µM (inactive) |  |
| CN(C)S(=O)(=O)/N=C/c1cccc(/C=N/S(=O)(=O)N(C)C)c1 | > 100 µM (inactive) | > 100 µM (inactive) | > 100 µM (inactive) | 55.1 µM (inactive) | > 100 µM (inactive) |  | > 100 µM (inactive) | 23.9 µM (inactive) |  | > 100 µM (inactive) |  |  | 33.3 µM (inactive) | > 100 µM (inactive) | > 100 µM (inactive) | 63.1 µM (inactive) | > 100 µM (inactive) |  |  |
| N#CC12C(=O)N3C(=NC(c4ccccc4)NC3c3ccccc3)C1(C#N)C(c1ccccc1)NC1=C2CCCC1 (stereo unspecified) | > 100 µM (inactive) | > 100 µM (inactive) | > 100 µM (inactive) | > 100 µM (inactive) | > 100 µM (inactive) | > 100 µM (inactive) | > 100 µM (inactive) |  | > 100 µM (inactive) | > 100 µM (inactive) | > 100 µM (inactive) | > 100 µM (inactive) | > 100 µM (inactive) | > 100 µM (inactive) | > 100 µM (inactive) | > 100 µM (inactive) | > 100 µM (inactive) | > 100 µM (inactive) |  |
| CN(C)Cc1ccc(-c2cc3onc(-c4ccccc4)c3c(=O)n2C)cc1 | 40.6 µM (inactive) | 17.5 µM (inactive) | 18.9 µM (inactive) | 17.9 µM (inactive) | 20.7 µM (inactive) | 36 µM (inactive) | 17.3 µM (inactive) | 20.3 µM (inactive) | 27.5 µM (inactive) | 16.4 µM (inactive) |  | 11 µM (inactive) | 14.4 µM (inactive) |  | 67.5 µM (inactive) | 19.4 µM (inactive) | 0.711 µM (active) | 18.7 µM (inactive) | 11.7 µM (inactive) |
| O=C(O)C(Cc1c[nH]cn1)N1C(=O)c2ccccc2C1=O (stereo unspecified) | > 100 µM (inactive) | > 100 µM (inactive) | > 100 µM (inactive) | > 100 µM (inactive) | 12.9 µM (inactive) | > 100 µM (inactive) | > 100 µM (inactive) |  | 6.19 µM (inactive) | > 100 µM (inactive) | > 100 µM (inactive) | > 100 µM (inactive) | > 100 µM (inactive) |  | > 100 µM (inactive) | > 100 µM (inactive) |  | > 100 µM (inactive) | > 100 µM (inactive) |
| CCOC(=O)c1cc(=O)c2cccc3c2n1CCS3 | > 100 µM (inactive) | 83.9 µM (inactive) | > 100 µM (inactive) | > 100 µM (inactive) | > 100 µM (inactive) | > 100 µM (inactive) | > 100 µM (inactive) | > 100 µM (inactive) | > 100 µM (inactive) | > 100 µM (inactive) |  | > 100 µM (inactive) | > 100 µM (inactive) |  | > 100 µM (inactive) |  | > 100 µM (inactive) | 91.4 µM (inactive) |  |
| COc1ccc(-c2c(-c3ccc(OC)cc3)n3c(=O)n(C)c(=O)n23)cc1 |  |  | > 100 µM (inactive) | > 100 µM (inactive) | 22.7 µM (inactive) | > 100 µM (inactive) | > 100 µM (inactive) | 24.6 µM (inactive) | 43.2 µM (inactive) | 53.3 µM (inactive) | 76.4 µM (inactive) |  | > 100 µM (inactive) | > 100 µM (inactive) | 67.1 µM (inactive) | 76.4 µM (inactive) |  | > 100 µM (inactive) |  |
| Cc1cc(S(=O)(=O)[N-]/C(=N/S(=O)(=O)c2ccc(Cl)cc2)[n+]2ccc(N(C)C)cc2)c(SCC(=O)O)cc1Cl | 21.5 µM (inactive) | 42.8 µM (inactive) |  |  | 17.9 µM (inactive) |  | > 100 µM (inactive) | 35.5 µM (inactive) |  | > 100 µM (inactive) | 59.4 µM (inactive) | 57.5 µM (inactive) | 26.4 µM (inactive) |  | > 100 µM (inactive) | 71.1 µM (inactive) | > 100 µM (inactive) |  | 35 µM (inactive) |
| CCCCc1c(N(C)C)c(OC(C)=O)c(-c2cn(C)c3ccccc23)oc1=O | 31.6 µM (inactive) | 27 µM (inactive) | 21.7 µM (inactive) | 13.8 µM (inactive) | 19.8 µM (inactive) |  | 34.8 µM (inactive) | 22.3 µM (inactive) | 18.7 µM (inactive) | 24.3 µM (inactive) | 41 µM (inactive) | 15.5 µM (inactive) | 17.3 µM (inactive) |  | 17.9 µM (inactive) |  | 17.7 µM (inactive) | 20.9 µM (inactive) | > 100 µM (inactive) |
